The source of these data is US8673974B2, “Substituted amino bisphenyl pentanoic acid derivatives as NEP inhibitors” (Novartis AG, priority 2010, dated 2014).

The target in this test is T1, recombinant human neutral endopeptidase (NEP, EC 3.4.24.11) (Homo sapiens, UniProt P08473).
T1 construct: made in house; host or cells: insect cells
Nature of the test: in vitro inhibition of recombinant human neutral endopeptidase (fluorescence lifetime assay). It is filed as biochemical. The conditions noted are these: recombinant human NEP 7 pM, 1 hour pre-incubation, substrate Cys(PT14)-Arg-Arg-Leu-Trp-OH 0.7 μM, read after 1 hour at room temperature, pH 7.4. The source says: The activity of a compound according to the present invention can be assessed by the following in vitro & in vivo methods and/or by the following in vitro & in vivo methods well-described in the art. See A fluorescence lifetime-based assay for protease inhibitor profiling on human kallikrein 7 Doering K, Meder G, Hinnenberger M, Woelcke J, Mayr L M, Hassiepen U Biomol Screen.
In particular, the in vitro inhibition of recombinant human neutral endopeptidase (NEP, EC 3.4.24.11) can be determined as follows: […]

T1 sequence (P08473 whole entry): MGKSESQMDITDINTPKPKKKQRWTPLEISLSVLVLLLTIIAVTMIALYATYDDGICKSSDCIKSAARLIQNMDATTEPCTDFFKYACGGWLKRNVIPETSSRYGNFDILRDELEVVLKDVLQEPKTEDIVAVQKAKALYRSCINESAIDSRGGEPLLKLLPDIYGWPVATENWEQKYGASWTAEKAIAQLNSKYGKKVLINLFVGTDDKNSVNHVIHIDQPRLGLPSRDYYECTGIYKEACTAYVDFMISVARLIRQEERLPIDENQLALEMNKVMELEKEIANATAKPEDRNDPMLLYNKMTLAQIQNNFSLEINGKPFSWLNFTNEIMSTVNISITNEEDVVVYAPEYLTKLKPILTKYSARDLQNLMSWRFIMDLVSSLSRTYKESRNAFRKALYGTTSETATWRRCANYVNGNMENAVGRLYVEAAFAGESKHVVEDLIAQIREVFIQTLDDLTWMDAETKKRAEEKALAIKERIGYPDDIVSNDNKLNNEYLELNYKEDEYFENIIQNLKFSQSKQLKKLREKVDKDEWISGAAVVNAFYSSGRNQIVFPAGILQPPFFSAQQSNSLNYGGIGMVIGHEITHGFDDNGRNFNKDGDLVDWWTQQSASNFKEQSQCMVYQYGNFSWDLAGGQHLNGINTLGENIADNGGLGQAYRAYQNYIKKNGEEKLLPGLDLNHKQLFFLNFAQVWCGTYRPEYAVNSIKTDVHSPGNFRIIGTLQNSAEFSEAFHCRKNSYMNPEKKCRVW

For orientation: IC50 means the concentration at which inhibition is half-maximal. With `COc1ccccc1-c1ccc(C[C@H](CC(C)C(=O)O)NC(=O)CCC(=O)O)cc1` (stereo partly drawn) [Example 6, (S)-4-(3-Carboxy-propionylamino)-5-(2′-methoxy-biphenyl-4-yl)-2-methyl-pentanoic acid], the IC50 is 3 nM.
